Experimental data published in ChEMBL document CHEMBL3621131, “Current developments of coumarin-based anti-cancer agents in medicinal chemistry” (Eur J Med Chem, 2015).
≈ marks a conversion by molar mass, not a printed value.

Key:
MCF7 [1] = test: Antiproliferative activity against human MCF7 cells; format: functional, cell-based
K562 [2] = test: Antiproliferative activity against human K562 cells assessed as growth inhibition; format: functional
[3] = Antiproliferative activity against human DLD1 cells assessed as growth inhibition; format: functional; settings: DLD-1
NCI-H157 = test: Antiproliferative activity against human NCI-H157 cells assessed as growth inhibition; format: functional
DU-145 [4] = test: Antiproliferative activity against human DU145 cells assessed as growth inhibition; format: functional
[5] = Antiproliferative activity against human BT20 cells assessed as growth inhibition; format: functional; settings: BT-20
A549 = test: Antitumor activity against human A549 cells assessed as cell viability incubated for 72 hrs by MTT assay; format: functional, cell-based; settings: A549, 72 h
MCF7 [6] = test: Cytotoxicity against human MCF7 cells assessed as cell viability incubated for 72 hrs by SRB assay; format: functional, cell-based; settings: MCF7, 72 h
HepG2 [7] = test: Cytotoxicity against human HepG2 cells assessed as cell viability incubated for 72 hrs by SRB assay; format: functional, cell-based; settings: HepG2, 72 h
SK-N-MC = test: Cytotoxicity against human SK-N-MC cells as cell viability by MTT assay; format: functional, cell-based
MDA-MB-231 [8] = test: Cytotoxicity against human MDA-MB-231 cells assessed as cell viability by MTT assay; format: functional, cell-based
MCF7 [9] = test: Antitumor activity against human MCF7 cells assessed as cell viability by MTT assay; format: functional, cell-based
KB = test: Antiproliferative activity against human KB cells assessed as growth inhibition; format: functional, cell-based
HepG2 [10] = test: Cytotoxicity against human HepG2 cells assessed as cell viability by MTT assay; format: functional, cell-based
[11] = Antiproliferative activity against human hTERT-HME1 cells assessed as growth inhibition; format: functional, cell-based
MDA-MB-231 [12] = test: Antiproliferative activity against human MDA-MB-231 cells assessed as growth inhibition; format: functional, cell-based
[13] = molecular target: T1, M-phase inducer phosphatase 2 (Homo sapiens, UniProt P30305); test: Inhibition of human CDC25B phosphatase
T1 sequence (P30305 whole entry): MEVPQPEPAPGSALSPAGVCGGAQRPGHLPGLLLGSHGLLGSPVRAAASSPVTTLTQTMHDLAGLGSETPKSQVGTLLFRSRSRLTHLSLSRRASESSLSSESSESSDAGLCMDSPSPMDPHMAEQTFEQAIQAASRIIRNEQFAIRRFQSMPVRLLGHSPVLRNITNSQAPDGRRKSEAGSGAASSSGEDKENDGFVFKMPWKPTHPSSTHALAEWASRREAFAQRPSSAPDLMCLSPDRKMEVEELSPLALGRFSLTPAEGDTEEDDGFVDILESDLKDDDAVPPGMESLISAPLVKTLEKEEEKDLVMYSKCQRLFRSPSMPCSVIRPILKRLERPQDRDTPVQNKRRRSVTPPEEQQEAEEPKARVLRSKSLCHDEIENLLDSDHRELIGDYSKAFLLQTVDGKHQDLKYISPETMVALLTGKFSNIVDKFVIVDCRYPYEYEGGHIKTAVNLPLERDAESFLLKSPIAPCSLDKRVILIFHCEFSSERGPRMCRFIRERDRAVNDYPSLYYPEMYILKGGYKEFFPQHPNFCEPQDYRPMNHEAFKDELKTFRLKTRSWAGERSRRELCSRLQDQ

[14] = molecular target: T2, M-phase inducer phosphatase 1 (Homo sapiens, UniProt P30304); test: Inhibition of human CDC25A phosphatase
T2 sequence (P30304 whole entry): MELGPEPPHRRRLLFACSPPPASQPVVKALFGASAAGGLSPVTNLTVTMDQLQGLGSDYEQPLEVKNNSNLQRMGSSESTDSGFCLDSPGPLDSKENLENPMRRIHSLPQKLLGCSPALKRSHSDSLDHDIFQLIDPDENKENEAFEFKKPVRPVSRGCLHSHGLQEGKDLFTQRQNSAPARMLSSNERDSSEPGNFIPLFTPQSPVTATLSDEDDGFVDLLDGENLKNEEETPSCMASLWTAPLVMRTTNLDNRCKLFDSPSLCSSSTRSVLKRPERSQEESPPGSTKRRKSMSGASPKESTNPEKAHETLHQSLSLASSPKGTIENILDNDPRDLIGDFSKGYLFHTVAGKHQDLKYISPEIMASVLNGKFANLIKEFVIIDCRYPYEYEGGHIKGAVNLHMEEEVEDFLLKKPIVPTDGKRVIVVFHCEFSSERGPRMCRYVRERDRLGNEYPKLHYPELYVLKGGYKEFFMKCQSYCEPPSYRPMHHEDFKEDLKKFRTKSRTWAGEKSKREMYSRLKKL

MCF7 [15] = test: Antiproliferative activity against human MCF7 cells assessed as growth inhibition; format: functional, cell-based
[16] = molecular target: T3, M-phase inducer phosphatase 3 (Homo sapiens, UniProt P30307); test: Inhibition of human CDC25C phosphatase
T3 sequence (P30307 whole entry): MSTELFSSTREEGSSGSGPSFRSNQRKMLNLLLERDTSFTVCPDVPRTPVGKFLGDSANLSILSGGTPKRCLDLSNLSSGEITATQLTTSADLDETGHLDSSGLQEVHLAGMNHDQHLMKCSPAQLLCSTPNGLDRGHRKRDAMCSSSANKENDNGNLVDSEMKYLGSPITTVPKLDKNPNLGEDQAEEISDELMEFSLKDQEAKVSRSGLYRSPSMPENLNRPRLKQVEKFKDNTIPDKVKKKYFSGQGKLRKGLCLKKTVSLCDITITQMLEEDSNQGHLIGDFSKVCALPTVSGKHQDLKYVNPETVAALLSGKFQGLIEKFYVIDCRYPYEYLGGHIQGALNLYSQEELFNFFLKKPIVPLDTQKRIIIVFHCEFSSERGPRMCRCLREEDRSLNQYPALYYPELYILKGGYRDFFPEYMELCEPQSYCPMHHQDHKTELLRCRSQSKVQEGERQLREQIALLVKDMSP

HCT-15 = test: Cytotoxicity against human HCT15 cells assessed as cell viability incubated for 72 hrs by SRB assay; format: functional, cell-based; settings: HCT-15, 72 h
K562 [17] = test: Antitumor activity against human K562 cells assessed as cell viability by MTT assay; format: functional, cell-based
DU-145 [18] = test: Antiproliferative activity against human DU145 cells assessed as growth inhibition by tryphan blue exclusion method; format: functional
NCI-H460 = test: Antiproliferative activity against human NCI-H460 cells assessed as growth inhibition; format: functional, cell-based

## Cc1cc(C(=O)c2ccccc2Br)ccc1OCC(=O)NNC(=O)c1cc2ccccc2oc1=O
MCF7 [1]
  IC50: < 10 µM

## O=c1oc2c(Br)cccc2cc1S(=O)(=O)Nc1ccc(Br)cc1
K562 [2]
  GI50: 12 µM
[3]
  GI50: 12 µM
NCI-H157
  GI50: 12 µM
DU-145 [4]
  GI50: 12 µM
[5]
  GI50: 12 µM

## Cc1ccc(C(=O)c2cc(F)c(OCC(=O)NNC(=O)c3cc4ccccc4oc3=O)c(Cl)c2)cc1
MCF7 [1]
  IC50: < 10 µM

## COc1cccc(C2c3cc(C)ccc3Nc3c2c(=O)oc2ccccc32)c1 (stereo not drawn)
A549
  IC50: 0.05 µM

## CC1=CP(C(c2ccccc2)(c2ccccc2)c2ccccc2)Oc2c1c(=O)oc1ccccc21 (stereo not drawn)
MCF7 [6]
  IC50: ≤ 3.89 µg/mL
HepG2 [7]
  IC50: ≤ 3.89 µg/mL

## O=c1oc2ccccc2c2c1C(c1cc(Br)ccc1O)SCCN2 (stereo not drawn)
SK-N-MC
  IC50: 3.75 µg/mL (≈ 9.28 µM)
MDA-MB-231 [8]
  IC50: 3.75 µg/mL (≈ 9.28 µM)
MCF7 [9]
  IC50: 3.75 µg/mL

## COc1cc(OC)cc(-c2cc3ccc(OC(C)=O)c(OC(C)=O)c3oc2=O)c1
KB
  IC50: 5.18 µM

## Cc1cc(-c2cc3cc(Cl)ccc3oc2=O)n(-c2nc(-c3ccc(Cl)cc3)cs2)n1
HepG2 [10]
  IC50: ≤ 3.25 µM

## COc1ccc2c(CSC3=CC(=O)c4ccccc4C3=O)cc(=O)oc2c1
[11]
  IC50: 18 µM
MDA-MB-231 [12]
  IC50: ≤ 11 µM
[13]
  IC50: ≤ 9 µM
[14]
  IC50: ≤ 9 µM
MCF7 [15]
  IC50: ≤ 11 µM
[16]
  IC50: ≤ 9 µM

## Cc1ccc2c(c1)C(c1ccccc1)c1c(c3ccccc3oc1=O)N2 (stereo not drawn)
A549
  IC50: 0.14 µM
MCF7 [9]
  IC50: 0.52 µM

## CCOC1(c2ccccc2)Oc2c(c(=O)oc3ccccc23)/C1=C\C(=O)c1ccccc1 (stereo not drawn)
HCT-15
  IC50: 8 µM
MCF7 [6]
  IC50: 8 µM

## CCc1nc([N+](=O)[O-])c(N2CCN(/C(=N/Nc3ccc4c(C)cc(=O)oc4c3)C(C)=O)CC2)n1Cc1ccccc1
K562 [17]
  IC50: 9.3 µM
MCF7 [9]
  IC50: 20.2 µM

## O=C(/C=C1\c2c(c3ccccc3oc2=O)OC1(c1ccccc1)N1CCCC1)c1ccccc1 (stereo not drawn)
HCT-15
  IC50: 8 µM
MCF7 [6]
  IC50: 8 µM

## COc1ccc(-c2csc(-n3nc(C)cc3-c3cc4cc(Cl)ccc4oc3=O)n2)cc1
HepG2 [10]
  IC50: ≤ 3.25 µM

## NCCCCCCCCNC(=O)c1c(O)c2ccccc2oc1=O
DU-145 [18]
  GI50: < 10 µM

## Cc1cc(C(=O)c2ccc(Cl)cc2Cl)ccc1OCC(=O)NNC(=O)c1cc2ccccc2oc1=O
MCF7 [1]
  IC50: < 10 µM

## C/C(=N/NC(=O)c1cc2ccccc2oc1=O)c1cccnc1
NCI-H460
  IC50: 10 µM
